From patent US20140051706A1 (PRISM PHARMA CO., LTD., priority 2011, published 2014)

Assay: Plasma stability test
Assay type: in vitro ADME
Details: human fresh plasma; read-out: ½t (plasma half-life)
Procedure: In the tables mentioned below, data indicated by “½t” means data of plasma half-life (minutes) is determined by plasma stability test that mentioned below.
Determination of Plasma half life was carried out according to the following procedure using the fresh plasma.
1. 0.025 mg/mL spiking solution A: add 10 μL of 0.5 mg/mL stock solution to 190 μL of DMSO. 2. Add 90 μL of plasma into the wells designated for all the time points (0, 5, 10, 30, 60, 90, 120, 240 min). 3. Add 10 μL of pre-warmed spiking solution A into the wells designated for all the time points (0, 5, 10, 30, 60, 90, 120, 240 min). Immediately, add 400 μL of ACN containing IS into the wells designated for 0 min, then start timing. 4. At 5, 10, 30, 60, 90, 120, 240 min, add 400 μL of ACN containing IS into the wells, respectively. 5. Protein is precipitated by centrifugation (4000 rpm, 15 min). 6. Transfer 50 μL of supernatant into 50 μL of ultra-pure water (Millipore) in a 96-well sample plate for LC-MS/MS analysis.

half-life at 2.5 µg/mL [h]	Compound
0.733	CC(=O)Oc1ccc(C[C@H]2C(=O)N(Cc3cccc4cccnc34)[C@@H](C)C3N2C(=O)CN(C)N3C(=O)NCc2ccccc2)cc1 (stereo partly drawn) [Example I-1, 4-(((6S,9S)-1-(benzylcarbamoyl)-2,9-dimethyl-4,7-dioxo-8-(quinolin-8-ylmethyl)octahydro-1H-pyrazino[2,1-c][1,2,4]triazin-6-yl)methyl)phenyl acetate]
2.77	CCCCCCCCC(=O)Oc1ccc(C[C@H]2C(=O)N(Cc3cccc4cccnc34)[C@@H](C)C3N2C(=O)CN(C)N3C(=O)NCc2ccccc2)cc1 (stereo partly drawn) [Example I-3, 4-(((6S,9S)-1-(benzylcarbamoyl)-2,9-dimethyl-4,7-dioxo-8-(quinolin-8-ylmethyl)octahydro-1H-pyrazino[2,1-c][1,2,4]triazin-6-yl)methyl)phenyl nonanoate]
2.75	CCCCC(=O)Oc1ccc(C[C@H]2C(=O)N(Cc3cccc4cccnc34)[C@@H](C)C3N2C(=O)CN(C)N3C(=O)NCc2ccccc2)cc1 (stereo partly drawn) [Example I-2, 4-(((6S,9S)-1-(benzylcarbamoyl)-2,9-dimethyl-4,7-dioxo-8-(quinolin-8-ylmethyl)octahydro-1H-pyrazino[2,1-c][1,2,4]triazin-6-yl)methyl)phenyl pentanoate]
